Legend:
hepatoma cell line = experiment: Promotion of PDT efficacy with lysosomal sensitizer in the hepatoma cell line; type: cell-based, murine; conditions: lysosomal sensitizer Npe6, hepatoma cell line
Method: Cell lines. Studies have been carried out with the murine leukemia L1210 and murine hepatoma hepa 1c1c7 cell lines along with primary rat hepatocyte cultures. Except for the latter, cells are grown in tissue culture. The L1210 cell line is grown in suspension culture in Fischer's medium containing 10% horse serum. The murine hepatoma 1c1c7 cell line was obtained from Dr. J. Whitlock, Jr. (Stanford University, CA). Cells were cultured on either commercially available plastic tissue cutureware, or poly-L-lysine coated glass coverslips or discs, and grown at 37° C. in a-minimal essential medium (aMEM) containing 5% fetal bovine serum and antibiotics. Cultures were passaged by incubation with a trypsin+EDTA solution (0.25% trypsin, 1 mM EDTA in Hank's Balanced Salts Solution). Determination of PDT efficacy. […] The cells were then lysed and levels of caspase-3 activity are assessed using a fluorescent plate reader. […] These substrates were cleaved by caspase-3 to form fluorescent products that were then detected. The plate readers take periodic readings of the emerging fluorescence, permitting a rate to be assessed. […] Protein levels in the lysates were also determined, so that the net result was in terms of caspase-3 activity per mg protein per minute. Photokilling was assessed by clonogenic assays involving the plating of known numbers of cells. […]

[1] = test system: murine hepatoma 1c1c7 cell line; experiment: Photokilling assessed by clonogenic assay after SnET2 PDT; type: cell-based; conditions: for number of colonies: irradiation 270 mJ/cm^2 at 630-700 nm, colonies counted four days later, mean±SD of 3-4 plates
Method: Cell lines. Studies have been carried out with the murine leukemia L1210 and murine hepatoma hepa 1c1c7 cell lines along with primary rat hepatocyte cultures. Except for the latter, cells are grown in tissue culture. The L1210 cell line is grown in suspension culture in Fischer's medium containing 10% horse serum. The murine hepatoma 1c1c7 cell line was obtained from Dr. J. Whitlock, Jr. (Stanford University, CA). Cells were cultured on either commercially available plastic tissue cutureware, or poly-L-lysine coated glass coverslips or discs, and grown at 37° C. in a-minimal essential medium (aMEM) containing 5% fetal bovine serum and antibiotics. Cultures were passaged by incubation with a trypsin+EDTA solution (0.25% trypsin, 1 mM EDTA in Hank's Balanced Salts Solution). Photokilling was assessed by clonogenic assays involving the plating of known numbers of cells. After several days in cell culture, the number of resulting colonies reflected the number of viable cells that survive PDT. Freshly prepared suspensions of 1c1c7 cells were plated in 60 mm culture dishes at a density of 500 cells/dish. Approximately 18 hours later cultures were treated with PDT sensitizer and/or UDCA. After 30 minutes of incubation culture dishes were washed once with complete medium and then refed with complete medium. Refed cultures were subsequently irradiated and returned to incubators. Cultures were refed every third day, and stained with crystal violet once colonies were of sufficient size to score. […] After irradiation of 270 mJ/cm^2 at 630-700 nm, the plates were incubated and the colonies were counted four days later. The data represents the mean±a standard deviation of three to four plates.

[2] = cited from earlier work
[3] = cited from earlier work; remark: listed apart in the source
[4] = UDCA analogs/conjugates

## C=Cc1c(C)c2cc3nc(c(CC(=O)N[C@@H](CC(=O)[O-])C(=O)[O-])c4nc(cc5[nH]c(cc1[nH]2)c(C)c5CC)C(C)=C4C(=O)[O-])[C@@H](CCC(=O)[O-])[C@@H]3C.[Na+].[Na+].[Na+].[Na+] [Npe6]
Hepatoma cell line
  promotion of photodynamic therapy efficacy by the potentiator: no evidence of promotion

## C[C@H](CCC(=O)O)[C@H]1CC[C@H]2[C@@H]3[C@@H](O)C[C@@H]4C[C@H](O)CC[C@]4(C)[C@H]3CC[C@]12C [UDCA, ursodeoxycholic acid]
[1]; UDCA 10 micromoles + SnET2 (2-mM)
  number of colonies: 12±5 colonies
[1]; UDCA 10 micromoles + SnET2 PDT
  colonies as percent: 20%
[1]; UDCA 100 micromoles + SnET2 (2-mM)
  number of colonies: 1±0.7 colonies
[1]; UDCA 100 micromoles + SnET2 PDT
  colonies as percent: 1.3%
[2]; chloraform
  solubility in chloraform: slightly soluble
[2]; ethanol and glacial acetic acid
  solubility in ethanol and glacial acetic acid: freely soluble
[2]; ether
  solubility in ether: sparingly soluble
[2]; water
  solubility in water: practically insoluble
[3]; once absorbed after oral administration, absence of liver disease
  hepatic extraction: about 50%
[3]; oral administration, passive diffusion
  absorption after oral administration: incomplete

## C[C@H](CCC(=O)NCC(=O)O)[C@H]1CC[C@H]2[C@@H]3[C@@H](O)C[C@@H]4C[C@H](O)CC[C@]4(C)[C@H]3CC[C@]12C [UDCA-glycine]
[4]
  promotion of photodynamic therapeutic photokilling: effective

## C[C@H](CCC(=O)NCCS(=O)(=O)O)[C@H]1CC[C@H]2[C@@H]3[C@@H](O)C[C@@H]4C[C@H](O)CC[C@]4(C)[C@H]3CC[C@]12C [UDCA-taurine]
[4]
  promotion of photodynamic therapeutic photokilling: effective

From US20030212052A1, “Use of ursdeoxycholic acid for potentiation of the phototoxic effect of photodynamic therapy” (priority 2003, published 2003)
